These results are taken from PubChem BioAssay (NCI).

Holding throughout (experiment): NCI anticancer screen, dose series, 48 h
In experiment [1] the test system is 786-0 renal.
Experiment [2] relates to HCT-15 colon.
Experiment [3] concerns HT29 colon.
Experiment [4] has as its system MDA-N.
The test system of experiment [5] is RPMI-8226 leukemia.
For experiment [6], the system named is LOX IMVI melanoma.

Structures are written as SMILES.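 Compound exposure: 48 hours, 5 concentrations, 96-well plates. At the TGI there is no net growth.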

For `CC(C)N=C(NC#N)NS(=O)(=O)c1cnccc1Nc1ccc(Cl)cc1`, the TGI in experiment [1], in experiment [2], in experiment [3], in experiment [4] and in experiment [5] was over 100 µM throughout.
In the case of `CN(C)C=Nc1cccc2cnccc12`, the TGI in experiment [1], in experiment [2], in experiment [3], in experiment [6], in experiment [4] and in experiment [5] was over 100 µM each time.
For `CC(C)(C)OC(=O)NC(Cc1cnc[nH]1)C(=O)N1CCCC1C(N)=O` (stereo not drawn), the TGI in experiment [1], in experiment [2], in experiment [3], in experiment [6], in experiment [4] and in experiment [5] was over 100 µM each time.
With `N#CC1CCN2N=C(c3ccccc3)SC12c1ccccc1` (stereo not drawn), the TGI in experiment [1], in experiment [2], in experiment [3], in experiment [6], in experiment [4] and in experiment [5] was over 100 µM throughout.
As for `O=C1c2ccccc2C(=O)N1CCCCCCNOCCCN1C(=O)c2ccccc2C1=O`, the TGI in experiment [1] is over 100 µM; in experiment [2], over 100 µM; in experiment [3] it was over 100 µM; in experiment [6], over 100 µM; in experiment [4], over 100 µM; in experiment [5], 99.4 µM.
For `Cc1c(C(=O)O)c2cc3ccccc3cc2c(=O)n1C`, the TGI in experiment [1], in experiment [2], in experiment [3], in experiment [6] and in experiment [4] was over 10 µM in each case.
Consider `OCC1OC(n2nc(-c3ccccc3)nc2-c2cnccn2)C(O)C1O` (stereo not drawn), for which the TGI in experiment [1], in experiment [2], in experiment [3], in experiment [6] and in experiment [4] was over 100 µM in each case.
Take `COC(=NCCC1=CCCCC1)OC`: the TGI in experiment [1] was over 100 µM; in experiment [2] it was over 100 µM; in experiment [3], 82.9 µM; in experiment [4] it was over 100 µM; in experiment [5], 85.8 µM.
On to `Cc1ccc(-n2c(Cn3nnc(-c4cccnc4)n3)nn(C3OC(COC(=O)c4ccccc4)C(OC(=O)c4ccccc4)C3OC(=O)c3ccccc3)c2=S)cc1` (stereo not drawn), for which the TGI in experiment [1], in experiment [2], in experiment [3], in experiment [6], in experiment [4] and in experiment [5] was over 100 µM throughout.
`COC(=O)C1C2C=CC(C2)N1S(=O)(=O)c1ccccc1` (stereo not drawn): the TGI in experiment [1], in experiment [2], in experiment [3], in experiment [4] and in experiment [5] was over 100 µM in each case.
As for `Cc1ccc(CS(=O)(=O)C/N=c2\sc3ccccc3nc2/C=C(\O)c2ccc(Cl)cc2)cc1`, the TGI in experiment [1], in experiment [2], in experiment [3], in experiment [6], in experiment [4] and in experiment [5] was over 10 µM throughout.
`CCOC(=O)c1cc(C2CCN(Cc3ccccc3)C2=O)c(C(=O)C(=[N+]=[N-])C(C)=O)[nH]1` (stereo not drawn): the TGI in experiment [1], in experiment [2], in experiment [3], in experiment [6] and in experiment [5] was over 100 µM throughout.
Take `C[C@@H](NC(=O)OC1C=CC2(CC1)C(=O)N(C)c1ccccc12)c1cccc2ccccc12` (stereo partly drawn): the TGI in experiment [1], in experiment [2], in experiment [3], in experiment [6], in experiment [4] and in experiment [5] was over 25 µM in each case.
Turning to `O=C(OCC12CC3CC(CC(C3)C1)C2)c1ccc(NCc2cc(O)ccc2O)cc1`, the TGI in experiment [1] turned out to be 2.35 µM; in experiment [2], 5.75 µM; in experiment [3] it was 14.6 µM; in experiment [6], 4.72 µM; in experiment [4] it was 16.7 µM; in experiment [5] it was 1.68 µM.
As for `CCCN(CCCCN1C(=O)c2ccccc2C1=O)CC1COc2ccccc2O1` (stereo not drawn), the TGI was over 100 µM in experiment [1]; over 100 µM in experiment [2]; over 100 µM in experiment [3]; over 100 µM in experiment [6]; over 100 µM in experiment [4]; 84.9 µM in experiment [5].
With `O=C1CC(=O)c2c(Cl)sc(Cl)c21`, the TGI in experiment [1], in experiment [2], in experiment [3], in experiment [6] and in experiment [4] was over 100 µM throughout.
As to `CC(=O)O[C@H]1CC[C@@]2(C)C(=CC[C@@H]3[C@@H]2CC[C@]2(C)C(=N/O)/C(=C/c4ccc([N+](=O)[O-])cc4)C[C@@H]32)C1`, the TGI in experiment [1] is 27.3 µM; in experiment [2] it was over 100 µM; in experiment [3], over 100 µM; in experiment [6], over 100 µM; in experiment [4] it was over 100 µM; in experiment [5], over 100 µM.
Consider `COc1ccc(C2=NN(c3ccccc3)C(c3cc4cc(Br)ccc4nc3Cl)C2)cc1` (stereo not drawn), for which the TGI in experiment [1], in experiment [2], in experiment [3], in experiment [6], in experiment [4] and in experiment [5] was over 25 µM in each case.
Regarding `COC(=O)/C=C1/N=C(N(C)/N=C/c2ccccc2)NC1=O`, the TGI in experiment [1], in experiment [2], in experiment [3], in experiment [6] and in experiment [4] was over 100 µM throughout.
Regarding `c1ccc2c3c([nH]c2c1)C1c2[nH]c4ccccc4c2CCN1CC3`, the TGI in experiment [1] is 25.8 µM; in experiment [2], 26.9 µM; in experiment [3], 26.7 µM; in experiment [6], 34.8 µM; in experiment [4], 35.6 µM; in experiment [5], over 100 µM.
With `COP1(=O)NCc2ncccc2O1` (stereo not drawn), the TGI in experiment [1], in experiment [2], in experiment [3], in experiment [6], in experiment [4] and in experiment [5] was over 100 µM each time.
